From patent US6864272B2, “Method and composition for treating cancer using cellular organelle crystallizing agents” (priority 2000, dated 2005) come the findings set out here.

The subject of one assay is 9 L gliosarcoma. As to the kind of experiment: In vivo antitumor activity of tetrazolium salts in polylactic acid polymer, established flank tumor in rats (Example 3). To be noted: 2.5 mg/kg in polylactic acid polymer implanted in 14 day established tumor, tumor volume on day 60, n=6.
Another assay concerns SDH. As to the kind of experiment: Inhibition of crystal formation on cellular structures by prior incubation with SDH inhibitor. In kind it is cell-based. The following applies: prior incubation of cells with the SDH inhibitor, crystals of Examples 4 through 7. From the text: The crystallization of organelles, such as centrosome, mitochondrion, or nuclear envelopes (or endoplasmic retulum), effectively stopped cell proliferation and induced cell death as well. This kind of cell death, which is different form either necrosis or appoptosis, is called cellular-organelle-crystallizatin-induced-death, […]. COCID also refers to the cell death, induced by the crystallization of cytoskeletons as well as the crystallization of the sub-units of cellular organelles and cytoskeletons. COCID further refers to the cell death, induced by the crystallization of proteins and small molecules located on cytoskeletons or the sub-units of cellular organelles and ccytoskeletons.
[…]

For the molecule `c1ccc(-c2nn(-c3ccccc3)[n+](-c3cccc4ccccc34)n2)cc1` [TV, 2,5-diphenyl-3-[1-naphthyl]-2H-tetrazolium chloride], the Tumor size in the assay on 9 L gliosarcoma is 21 ± 2.3 cm^3. Take `O=C(O)CC[N+](=O)[O-]` [nitropropionic acid]: in the assay on SDH, the “inhibition of the crystals on the cellular structures” value is “could be inhibited”. As for `c1ccc(-c2nn(-c3ccccc3)[n+](-c3ccccc3)n2)cc1` [TR, 2,3,5-triphenyltetrazolium chloride], the Tumor size in the assay on 9 L gliosarcoma is 44 ± 5.3 cm^3.
